Results from PMC6588697, “Lugdunin amplifies innate immune responses in the skin in synergy with host- and microbiota-derived factors” (Nature Communications, 2019).
“And” between values parts separate entries of the source, which are not always exact repeats. Equal entries are not always repeated.

Tests used:
Format in all cases: cell-based, human
HEK293-TLR2 cells = test: CXCL8 release by HEK-TLR2 cells (LEGENDplex)
Description: Fig. 2 Induction of chemokine (C-X-C motif) ligand 8/macrophage inflammatory protein-2 (CXCL8/MIP-2) by lugdunin is TLR2/MyD88-dependent. a HEK-control or HEK-TLR2 cells were treated with 2 μM lugdunin for 5 h and subsequently the CXCL8 concentration in the supernatant was analyzed by LEGENDplex^TM (BioLegend). Shown is one representative experiment of three independent experiments with two technical replicates ± s.e.m. b HEK-control or HEK-TLR2 cells were treated with increasing concentrations of lugdunin for 5 h and subsequently expression of CXCL8 was analyzed and normalized to actin. Shown is one representative experiment of three independent experiments with two technical replicates ± s.e.m. c Schematic overview of the mouse experiments: 6–8-week-old female C5BL/6 WT, MyD88-knockout (ko), or 5xTLR-ko mice were epicutaneously treated with 1.5 µg lugdunin or phosphate-buffered saline (PBS) as a control. […] Significant differences to control treatments were analyzed by an unpaired two-tailed t test (*P < 0.05; **P < 0.01; ***P < 0.001). f Representative MIP-2-stained paraffin-embedded mouse skin sections. […]
Supplementary Figure 2: CXCL8 controls and other cytokines in mouse skin 46 a: HEK-control cells or HEK -TLR2 cells were treated with 100 ng/mL Pam2Cys for 5 47 hours and subsequently the CXCL8 concentration in the supernatant was analyzed. […]

HTEpCs = test: Cytokine release into HTEpC supernatant (LEGENDplex / ELISA); settings: 5 h, lugdunin 2 µM or Pam2Cys 100 ng/mL, two technical replicates, Fig 1f
PHKs = test: AMP gene expression in PHKs (qRT-PCR, normalized to actin); settings: 20 h, 2 µM lugdunin and/or S. epidermidis CM, medium = 1, two technical replicates, Fig 1c
Description: Fig. 1 Lugdunin sensitizes epithelial cells for innate immune defense. a Primary human keratinocytes (PHKs) were pretreated with S. epidermidis conditioned medium (CM), indicated lugdunin concentrations, or the combination of both for 20 h. Subsequently, cells were infected with S. aureus for 1.5 h followed by cell lysis and determination of colony-forming units (CFUs). Shown is one representative experiment of three independent experiments with six technical replicates ± s.e.m. n.s., not significant. b Dorsal skin of mice was pretreated with S. epidermidis CM, 1.5 µg lugdunin alone or in combination with S. epidermidis CM for 24 h. Subsequently, S. aureus CFUs were determined. Horizontal lines represent the mean of each group ± s.e.m. c PHKs were treated with 2 μM lugdunin or with S. epidermidis CM alone or in combination for 20 h and subsequently expression of indicated antimicrobial peptides (AMPs) (respective protein names in brackets) was analyzed and normalized to actin. Shown is one representative experiment of three independent experiments with two technical replicates ± s.e.m. d PHKs were treated with 2 µM lugdunin or 100 ng/mL Pam2Cys for 5 h and subsequently the concentration of indicated cytokines in the supernatant was analyzed by LEGENDplex^TM (BioLegend). Shown is one representative experiment of three independent experiments with two technical replicates ± s.e.m. e PHKs were treated with increasing concentrations of lugdunin or 100 ng/mL Pam2Cys or Pam3Cys for 5 h and subsequently expression of chemokine (C-X-C motif) ligand 8 (CXCL8) was analyzed and normalized to actin. Shown is one representative experiment of three independent experiments, each with two technical replicates ± s.e.m. f, g Indicated cells were treated with 2 µM lugdunin or 100 ng/mL Pam2Cys as a positive control for 5 h and subsequently the concentration of CXCL8 (f) and interleukin-1α (IL-1α) (g) in the supernatant was analyzed by LEGENDplex^TM (BioLegend) and enzyme-linked immunosorbent assay (ELISA) (R&D Systems). Shown is one representative experiment of three independent experiments with two technical replicates ± s.e.m. Significant differences to control treatments were analyzed by ordinary one-way analysis of variance (ANOVA) followed by Dunnett’s multiple comparisons test (*P < 0.05; **P < 0.01; ***P < 0.001; ****P < 0.0001). n.d. = not detected. Source data are provided as a Source Data file
After 5 h or 20 h of peptide treatment, PHKs were washed once with PBS, followed by the addition of RNA lysis buffer directly into the well. Total RNA was extracted using the Nucleospin RNA Kit (Macherey-Nagel) according to the manufacturer’s protocol. Complementary DNA was synthesized using the Reverse-Transkriptase Kit (Thermo Scientific) with 2 µg of RNA, 4 µL of 5× RT buffer, 0.5 µL Maxima reverse transcriptase ([…]), 1 µL of random hexamer primer (100 µM), dNTP (10 mM), and RNAse-free water to a total volume of 20 µL. After pre-incubation of RNA with water for 10 min at 70 °C, master mix was added and incubated for 10 min at 25 °C, followed by 45 min at 50 °C and a final heat inactivation step for 5 min at 85 °C.
Quantitative reverse transcription-polymerase chain reaction (qRT-PCR) was performed in 10 µL reaction volume with SYBR^TM Green PCR Master Mix (Thermo Fisher) according to the manufacturer’s instructions using a LightCycler 96 (Roche Life Science). […]
11 subsequently expression of CAMP (LL-37) was analyzed and normalized to actin. […]

## Lugdunin
HEK293-TLR2 cells; HEK-TLR2 cells, lugdunin 2 µM, 5 h, two technical replicates, Fig 2a
  CXCL8 concentration in supernatant: 564.521 and 585.121
HEK293-TLR2 cells; text to Fig 2a and Supp Fig 2
  CXCL8 induction level in HEK-TLR2 cells, times lower than Pam2Cys/Pam3Cys-mediated TLR2 activation: 1000 fold
HTEpCs
  CXCL8 concentration in supernatant: 214.845 and 210.300
PHKs
  CAMP (LL-37) expression normalized to actin: 189.36 and 213.04
  DEFB1 (HBD-1) expression normalized to actin: 1.91
  DEFB4A (HBD-2) expression normalized to actin: 0.69 and 0.77
  DEFB103A (HBD-3) expression normalized to actin: 1.53 and 1.71
  RNASE7 (RNase7) expression normalized to actin: 2.34 and 2.18
